Assays:
[1] = target: neutral endopeptidase (NEP, EC 3.4.24.11) (Homo sapiens, UniProt P08473); assay: NEP inhibition in vitro (IC50); type: biochemical
Method: (§1) The ACE inhibitory activity of the compounds of the present invention is determined via in vitro tests using standard test procedures for ACE inhibition well known to those skilled in the art. Similarly, NEP inhibitory activity is determined via in vitro tests using standard test procedures for NEP inhibition well known to those skilled in the art.

[2] = target: angiotensin converting enzyme (ACE) (Homo sapiens, UniProt P12821); assay: ACE inhibition in vitro (IC50); type: biochemical
Sequence of angiotensin converting enzyme (ACE) (P12821 30-1306, species assumed): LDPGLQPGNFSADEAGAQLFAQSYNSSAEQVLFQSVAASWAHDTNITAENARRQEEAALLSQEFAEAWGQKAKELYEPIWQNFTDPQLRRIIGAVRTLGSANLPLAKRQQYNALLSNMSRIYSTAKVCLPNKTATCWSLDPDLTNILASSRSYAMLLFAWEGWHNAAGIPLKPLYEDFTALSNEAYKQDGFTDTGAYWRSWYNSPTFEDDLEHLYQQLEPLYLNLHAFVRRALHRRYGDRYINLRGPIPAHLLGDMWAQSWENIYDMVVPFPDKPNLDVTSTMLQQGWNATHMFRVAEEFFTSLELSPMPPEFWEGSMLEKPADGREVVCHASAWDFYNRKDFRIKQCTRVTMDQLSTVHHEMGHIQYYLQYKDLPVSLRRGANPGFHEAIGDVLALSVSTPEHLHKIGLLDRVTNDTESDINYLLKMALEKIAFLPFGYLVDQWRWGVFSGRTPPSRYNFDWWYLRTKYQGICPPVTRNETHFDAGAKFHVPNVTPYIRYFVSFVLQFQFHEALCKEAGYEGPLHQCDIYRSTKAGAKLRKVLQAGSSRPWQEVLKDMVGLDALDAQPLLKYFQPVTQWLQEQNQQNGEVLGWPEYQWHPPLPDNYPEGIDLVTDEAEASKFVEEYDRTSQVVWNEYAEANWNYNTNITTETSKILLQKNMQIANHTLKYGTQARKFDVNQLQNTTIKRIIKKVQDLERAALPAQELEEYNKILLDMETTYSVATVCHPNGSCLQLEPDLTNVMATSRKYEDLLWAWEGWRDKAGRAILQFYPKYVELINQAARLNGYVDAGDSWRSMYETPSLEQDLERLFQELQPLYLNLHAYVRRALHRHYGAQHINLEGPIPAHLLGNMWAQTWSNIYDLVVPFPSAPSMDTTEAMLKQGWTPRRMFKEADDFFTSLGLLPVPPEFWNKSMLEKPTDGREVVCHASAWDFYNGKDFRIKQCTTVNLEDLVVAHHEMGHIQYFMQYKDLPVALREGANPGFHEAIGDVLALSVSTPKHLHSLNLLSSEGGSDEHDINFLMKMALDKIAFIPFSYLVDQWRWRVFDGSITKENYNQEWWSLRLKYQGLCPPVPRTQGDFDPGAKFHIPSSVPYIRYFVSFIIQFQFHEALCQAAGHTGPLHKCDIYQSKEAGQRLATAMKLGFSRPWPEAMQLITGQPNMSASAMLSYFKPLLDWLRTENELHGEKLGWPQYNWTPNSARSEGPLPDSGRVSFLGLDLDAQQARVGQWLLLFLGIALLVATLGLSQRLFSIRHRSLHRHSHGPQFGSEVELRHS
Method: as §1

[3] = tested on: angiotensin I (AI) challenge; assay: A1 Challenge Assay; type: in vivo, male Sprague-Dawley rats

Sequence of neutral endopeptidase (NEP, EC 3.4.24.11) (P08473 whole entry, species assumed): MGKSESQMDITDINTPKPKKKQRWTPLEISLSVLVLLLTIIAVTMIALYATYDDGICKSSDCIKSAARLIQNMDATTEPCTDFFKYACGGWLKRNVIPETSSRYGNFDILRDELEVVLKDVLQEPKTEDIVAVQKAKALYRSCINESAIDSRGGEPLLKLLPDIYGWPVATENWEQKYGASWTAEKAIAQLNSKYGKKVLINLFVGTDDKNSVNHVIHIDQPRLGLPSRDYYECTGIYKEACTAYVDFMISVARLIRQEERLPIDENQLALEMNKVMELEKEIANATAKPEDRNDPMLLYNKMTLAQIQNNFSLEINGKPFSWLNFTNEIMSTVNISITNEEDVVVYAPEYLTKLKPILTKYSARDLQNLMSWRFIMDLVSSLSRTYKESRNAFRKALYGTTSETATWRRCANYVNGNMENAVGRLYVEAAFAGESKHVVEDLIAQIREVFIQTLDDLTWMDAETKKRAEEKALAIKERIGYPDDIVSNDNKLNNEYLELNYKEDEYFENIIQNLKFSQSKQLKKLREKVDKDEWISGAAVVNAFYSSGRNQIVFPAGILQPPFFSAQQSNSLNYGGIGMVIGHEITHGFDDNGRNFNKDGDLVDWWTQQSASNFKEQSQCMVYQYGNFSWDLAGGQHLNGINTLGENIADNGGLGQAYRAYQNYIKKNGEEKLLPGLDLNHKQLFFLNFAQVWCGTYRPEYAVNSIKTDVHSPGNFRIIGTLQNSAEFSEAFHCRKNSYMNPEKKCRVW

Structure (SMILES)	IC50 [1] [nM]	IC50 [2] [nM]	A1 Chall. (% inhibition) ([3]; dose 10 sc) [%]	A1 Chall. (% inhibition) ([3]; dose 30 sc) [%]
CN(C)C(=O)N[C@@H](CCCCN)C(=O)NC[C@H](CC1(C(=O)N[C@@H](Cc2ccc(O)cc2)C(=O)O)CCCC1)C(=O)O [NH2 C(O) (CH3)2 NH]	1	15	–	–
CN(C)S(=O)(=O)N[C@@H](CCCCNC(=O)OCc1ccccc1)C(=O)NC[C@H](CC1(C(=O)N[C@@H](Cc2ccc(O)cc2)C(=O)O)CCCC1)C(=O)O [CbzNH SO2 (CH3)2 NH]	1	1	–	–
NCCCC[C@H](NC(=O)N1CCOCC1)C(=O)NC[C@H](CC1(C(=O)N[C@@H](Cc2ccc(O)cc2)C(=O)O)CCCC1)C(=O)O [NH2 C(O) drawing 39]	9	8	–	–
CS(=O)(=O)N(CCCNC(=O)OCc1ccccc1)CC(=O)NC[C@H](CC1(C(=O)N[C@@H](Cc2ccc(O)cc2)C(=O)O)CCCC1)C(=O)O [CbzNH SO2 CH3]	2	40	100	–
COC(=O)N[C@@H](CCCCNC(=O)OCc1ccccc1)C(=O)NC[C@H](CC1(C(=O)N[C@@H](Cc2ccc(O)cc2)C(=O)O)CCCC1)C(=O)O [CbzNH C(O) CH3 O]	8	15	–	49
O=C(NCCCC[C@H](NC(=O)N1CCOCC1)C(=O)NC[C@H](CC1(C(=O)N[C@@H](Cc2ccc(O)cc2)C(=O)O)CCCC1)C(=O)O)OCc1ccccc1 [CbzNH C(O) drawing 38]	2	2	–	–
COC(=O)N[C@@H](CCCCN)C(=O)NC[C@H](CC1(C(=O)N[C@@H](Cc2ccc(O)cc2)C(=O)O)CCCC1)C(=O)O [NH2 C(O) CH3 O]	33	60	–	92
CS(=O)(=O)N(CCCN)CC(=O)NC[C@H](CC1(C(=O)N[C@@H](Cc2ccc(O)cc2)C(=O)O)CCCC1)C(=O)O [NH2 SO2 CH3]	1	6	–	81
CN(C)C(=O)N[C@@H](CCCCNC(=O)OCc1ccccc1)C(=O)NC[C@H](CC1(C(=O)N[C@@H](Cc2ccc(O)cc2)C(=O)O)CCCC1)C(=O)O [CbzNH C(O) (CH3)2 NH]	2	450	–	88
CN(C)S(=O)(=O)N[C@@H](CCCCN)C(=O)NC[C@H](CC1(C(=O)N[C@@H](Cc2ccc(O)cc2)C(=O)O)CCCC1)C(=O)O [NH2 SO2 (CH3)2 NH]	32	–	–	–

— patent US5208236A, “N-(acylaminomethyl)glutaryl amino acids and use” (Schering Corporation, priority 1992, dated 1993)
